The text below walks through data of ChEMBL document CHEMBL1681694, “Solution-phase parallel synthesis and screening of anti-tumor activities from fenbufen and ethacrynic acid libraries” (Bioorg Med Chem Lett, 2011).

pIC50: −log10 of the molar value.

Holding throughout (format): functional, cell-based
One assay concerns A549. Description: Cytotoxicity against human A549 cells after 2 days by MTT assay. The note with it: A549, 48 h.
A short description of assay [1]: Cytotoxicity against mouse TRAMP-C1 cells after 2 days by MTT assay. The note with it: TRAMP-C1, 48 h. For orientation: Formazan colour is commonly taken as a measure of viable cells.
A short description of assay [2]: Cytotoxicity against mouse C26 cells after 2 days by MTT assay. The note with it: C26, 48 h.
A further assay has as its system MCF7. Description: Cytotoxicity against human MCF7 cells after 2 days by MTT assay. The note with it: MCF7, 48 h.

The pIC50 is the IC50 on a negative log10 scale, so that one unit is a factor of ten.

As for `Cc1ccc(C)c(OCCCC(C)(C)C(=O)NCCCCNC(=O)CCC(=O)c2ccc(-c3ccccc3)cc2)c1`, the pIC50 in the assay on A549 is 5.05; in assay [1], 4.40; in assay [2], 5.00; in the assay with MCF7, 5.70.
For the compound `CCCCC(CC)C(=O)NCCCCNC(=O)CCC(=O)c1ccc(-c2ccccc2)cc1` (stereo not given), the pIC50 is 4.77 in the assay with A549, 4.74 in assay [1], 4.89 in assay [2] and 6.00 with MCF7.
The like results for `C=C(CC)C(=O)c1ccc(OCC(=O)NCCCCNC(=O)CCC(=O)c2ccc(-c3ccccc3)cc2)c(Cl)c1Cl` were, in that order, 4.72, 4.10, 4.46 and 5.30.
Take `C=C(CC)C(=O)c1ccc(OCC(=O)NCCCCN)c(Cl)c1Cl`: the pIC50 with A549 is 4.74; in the assay on MCF7, 5.10.
The like results for `NCCCCNC(=O)CCC(=O)c1ccc(-c2ccccc2)cc1` [FENBUFEN BUTANAMINE] were, in that order, 4.00 and 4.06.
`O=C(O)CCC(=O)c1ccc(-c2ccccc2)cc1` [FENBUFEN]: the pIC50 was under 4.00 in the assay with A549, under 4.00 in assay [1], under 4.00 in assay [2] and under 4.30 with MCF7.
